Data as given in patent US11844845B2, “Cell penetrating peptide, conjugate comprising same, and composition comprising conjugate” (GEMVAX & KAEL CO., LTD., priority 2012, dated 2023).

Test system: HeLa cell
Assay: Cell penetration of pep(CPP)-FITC conjugate in HeLa cell line, flow cytometry (FACS)
Type: cell-based, Homo sapiens
Conditions: HeLa cells, 20 uM FITC-fused peptide, 37° C. for an hour, control = FITC only
Protocol: Homo sapiens cervix adenocarcinoma cell line as HeLa cell lines were purchased from ATCC (American Type Cell Culture). The cells were cultured in MEM supplemented with 10% fetal bovine serum (Invitrogen, USA), Earle's salts, non-essential amino acids, sodium pyruvate and 100 μg/ml penicillin and 10 units/ml streptomycin and cultured at 37° C., 5% CO2 incubator.
Flow cytometry and Confocal microscope analysis were performed to compare the between degree of cellular uptake of the cells were treated with SEQ ID NO: 2 to SEQ ID NO: 178, pep (CPP) and control.
The cell line was divided in a 6-well plate and cultured in a medium containing 10% fetal bovine serum (Invitrogen, USA), 100 μg/ml penicillin, 100 units/ml streptomycin at 37° C. 5% CO2 incubator for 12 hours. After washing the cell line with PBS, starvation was induced in a Minimum Essential Medium for an hour. 20 uM of each carrier peptide was treated and cultured at 37° C. for an hour. After repeating the step of washing the cells with PBS for three times, Trypsin-EDTA was treated form 10 mins at 37° C. to separate the carrier peptide on the outside of the cell. cells were collected with refrigerated PBS and centrifugation was performed to repeat the step of washing the cells for three times. After then, the cells were suspended in 0.5 ml of PBS containing 4% Paraformaldehyde and fluorescence of the cells was analyzed using FACS Calibur (Becton Dickinson). The cellular uptake aspect of control and various peptides combined with FITC was compared and analyzed by MFI (Mean Fluorescence Intensity).
Analysis results shown in FIGS. 2 to 29 are given in detail in Table 7 below.

Q: “LTSRLRFIPK (listed as Homo sapiens) [Pep-RIA-96]” was tested. Which “cellular uptake, MFI (Mean Fluorescence Intensity)” value (shortened to “cellular uptake, MFI”) did it give?
A: 14.96 ± 0.42

Q: For “PAL (listed as Homo sapiens) [Pep-RIA-138]”, which “cellular uptake, MFI” value is on record?
A: 10.8 ± 0.78

Q: With “PALL (listed as Homo sapiens) [Pep-RIA-137]” as the substance, how does the “cellular uptake, MFI” value read?
A: 10.71 ± 1.99

Q: How did the “cellular uptake, MFI” value turn out when “PALLTSR (listed as Homo sapiens) [Pep-RIA-134]” was run?
A: 13.28 ± 0.75

Q: “PALLTSRL (listed as Homo sapiens) [Pep-RIA-133]” was tested. Which “cellular uptake, MFI” value did it give?
A: 12.95 ± 0.69

Q: Which “cellular uptake, MFI” value does the source give for “PALLTSRLR (listed as Homo sapiens) [Pep-RIA-132]” here?
A: 13.72 ± 0.52

Q: For “PALLTSRLRF (listed as Homo sapiens) [Pep-RIA-106]”, which “cellular uptake, MFI” value is on record?
A: 18.41 ± 1.12

Q: “PALLTSRLRFI (listed as Homo sapiens) [Pep-RIA-131]” was tested. Which “cellular uptake, MFI” value did it give?
A: 13.66 ± 0.87

Q: “PALLTSRLRFIP (listed as Homo sapiens) [Pep-RIA-130]” was tested. Which “cellular uptake, MFI” value did it give?
A: 18.54 ± 1.64

Q: With “PALLTSRLRFIPK (listed as Homo sapiens) [Pep-RIA-93]” as the substance, how does the “cellular uptake, MFI” value read?
A: 22.88 ± 1.82

Q: How did the “cellular uptake, MFI” value turn out when “QHREARPALLTSRLRFIPKPDGL (listed as Homo sapiens) [Pep-RIA-28]” was run?
A: 14.8 ± 0.32

Q: How did the “cellular uptake, MFI” value turn out when “QHREARPALLTSRLRFIPKPDGLR (listed as Homo sapiens) [Pep-RIA-37]” was run?
A: 16.73 ± 0.28

Q: “QLRELSEAEVRQHREARPALLTSRLRFIPK (listed as Homo sapiens) [Pep-RIA-14]” was tested. Which “cellular uptake, MFI” value did it give?
A: 23.67 ± 1.22

Q: For “REARPALLTSRLRFIPK (listed as Homo sapiens) [Pep-RIA-1]”, which “cellular uptake, MFI” value is on record?
A: 24.3 ± 0.61

Q: Which “cellular uptake, MFI” value does the source give for “REARPALLTSRLRFIPKP (listed as Homo sapiens) [Pep-RIA-15]” here?
A: 16.32 ± 0.36

Q: With “REARPALLTSRLRFIPKPD (listed as Homo sapiens) [Pep-RIA-18]” as the substance, how does the “cellular uptake, MFI” value read?
A: 13.4 ± 0.34

Q: Which “cellular uptake, MFI” value does the source give for “REARPALLTSRLRFIPKPDG (listed as Homo sapiens) [Pep-RIA-23]” here?
A: 16.57 ± 0.68

Q: For “REARPALLTSRLRFIPKPDGL (listed as Homo sapiens) [Pep-RIA-30]”, which “cellular uptake, MFI” value is on record?
A: 15.34 ± 0.55

Q: “REARPALLTSRLRFIPKPDGLR (listed as Homo sapiens) [Pep-RIA-39]” was tested. Which “cellular uptake, MFI” value did it give?
A: 15.84 ± 0.79

Q: How did the “cellular uptake, MFI” value turn out when “REARPALLTSRLRFIPKPDGLRP (listed as Homo sapiens) [Pep-RIA-50]” was run?
A: 15.47 ± 0.73

Q: For “REARPALLTSRLRFIPKPDGLRPI (listed as Homo sapiens) [Pep-RIA-63]”, which “cellular uptake, MFI” value is on record?
A: 19.72 ± 0.33

Q: Which “cellular uptake, MFI” value does the source give for “RELSEAEVRQHREARPALLTSRLRFIPK (listed as Homo sapiens) [Pep-RIA-12]” here?
A: 12.93 ± 0.18

Q: “RFIPK (listed as Homo sapiens) [Pep-RIA-101]” was tested. Which “cellular uptake, MFI” value did it give?
A: 12.35 ± 0.28

Q: “RLRFIPK (listed as Homo sapiens) [Pep-RIA-99]” was tested. Which “cellular uptake, MFI” value did it give?
A: 17.45 ± 0.19

Q: How did the “cellular uptake, MFI” value turn out when “RPA (listed as Homo sapiens) [Pep-RIA-129]” was run?
A: 11.18 ± 0.97

Q: “RPAL (listed as Homo sapiens) [Pep-RIA-128]” was tested. Which “cellular uptake, MFI” value did it give?
A: 12.41 ± 0.16

Q: For “RPALL (listed as Homo sapiens) [Pep-RIA-127]”, which “cellular uptake, MFI” value is on record?
A: 12.15 ± 0.89

Q: “RPALLT (listed as Homo sapiens) [Pep-RIA-126]” was tested. Which “cellular uptake, MFI” value did it give?
A: 11.51 ± 1.84

Q: How did the “cellular uptake, MFI” value turn out when “RPALLTS (listed as Homo sapiens) [Pep-RIA-125]” was run?
A: 11.07 ± 0.55

Q: “RPALLTSRLR (listed as Homo sapiens) [Pep-RIA-123]” was tested. Which “cellular uptake, MFI” value did it give?
A: 17.31 ± 0.68

Q: How did the “cellular uptake, MFI” value turn out when “RPALLTSRLRF (listed as Homo sapiens) [Pep-RIA-122]” was run?
A: 23.8 ± 1.54

Q: “RPALLTSRLRFI (listed as Homo sapiens) [Pep-RIA-105]” was tested. Which “cellular uptake, MFI” value did it give?
A: 19.4 ± 0.59

Q: For “RPALLTSRLRFIP (listed as Homo sapiens) [Pep-RIA-121]”, which “cellular uptake, MFI” value is on record?
A: 20.72 ± 0.33

Q: For “RPALLTSRLRFIPK (listed as Homo sapiens) [Pep-RIA-92]”, which “cellular uptake, MFI” value is on record?
A: 26.28 ± 0.38

Q: How did the “cellular uptake, MFI” value turn out when “RQHREARPALLISRLRFIPKPD (RQHREARPALLTSRLRFIPKPD; listed as Homo sapiens) [Pep-RIA-25]” was run?
A: 17.41 ± 0.32

Q: Which “cellular uptake, MFI” value does the source give for “RQHREARPALLTSRLRFIPK (listed as Homo sapiens) [Pep-RIA-4]” here?
A: 27.25 ± 0.79

Q: “RQHREARPALLTSRLRFIPKP (listed as Homo sapiens) [Pep-RIA-24]” was tested. Which “cellular uptake, MFI” value did it give?
A: 19.42 ± 0.72

Q: For “RQHREARPALLTSRLRFIPKPDGL (listed as Homo sapiens) [Pep-RIA-27]”, which “cellular uptake, MFI” value is on record?
A: 19.69 ± 0.49

Q: Which “cellular uptake, MFI” value does the source give for “RQHREARPALLTSRLRFIPKPDGLR (listed as Homo sapiens) [Pep-RIA-36]” here?
A: 14.07 ± 0.41

Q: For “RQHREARPALLTSRLRFIPKPDGLRP (listed as Homo sapiens) [Pep-RIA-47]”, which “cellular uptake, MFI” value is on record?
A: 17.6 ± 0.82

Q: “RQHREARPALLTSRLRFIPKPDGLRPI (listed as Homo sapiens) [Pep-RIA-60]” was tested. Which “cellular uptake, MFI” value did it give?
A: 15.93 ± 1.84

Q: Which “cellular uptake, MFI” value does the source give for “SEAEVRQHREARPALLTSRLRFIPK (listed as Homo sapiens) [Pep-RIA-9]” here?
A: 12.7 ± 0.25

Q: “SRL (listed as Homo sapiens) [Pep-RIA-169]” was tested. Which “cellular uptake, MFI” value did it give?
A: 5.64 ± 0.65

Q: How did the “cellular uptake, MFI” value turn out when “SRLRFI (listed as Homo sapiens) [Pep-RIA-166]” was run?
A: 6.97 ± 0.53

Q: How did the “cellular uptake, MFI” value turn out when “SRLRFIP (listed as Homo sapiens) [Pep-RIA-165]” was run?
A: 5.75 ± 0.41

Q: For “SRLRFIPK (listed as Homo sapiens) [Pep-RIA-98]”, which “cellular uptake, MFI” value is on record?
A: 14.04 ± 1.55

Q: How did the “cellular uptake, MFI” value turn out when “TSRLRF (listed as Homo sapiens) [Pep-RIA-161]” was run?
A: 14.41 ± 0.81

Q: How did the “cellular uptake, MFI” value turn out when “TSRLRFIP (listed as Homo sapiens) [Pep-RIA-159]” was run?
A: 12.58 ± 1.08

Q: Which “cellular uptake, MFI” value does the source give for “TSRLRFIPK (listed as Homo sapiens) [Pep-RIA-97]” here?
A: 13.68 ± 0.37

Q: How did the “cellular uptake, MFI” value turn out when “VRQHREARPALLTSRLRFIPK (listed as Homo sapiens) [Pep-RIA-5]” was run?
A: 20.24 ± 0.34

Q: “VRQHREARPALLTSRLRFIPKPDG (listed as Homo sapiens) [Pep-RIA-33]” was tested. Which “cellular uptake, MFI” value did it give?
A: 15.04 ± 0.68

Q: With “VRQHREARPALLTSRLRFIPKPDGL (listed as Homo sapiens) [Pep-RIA-34]” as the substance, how does the “cellular uptake, MFI” value read?
A: 16.37 ± 0.97

Q: For “VRQHREARPALLTSRLRFIPKPDGLR (listed as Homo sapiens) [Pep-RIA-35]”, which “cellular uptake, MFI” value is on record?
A: 13.22 ± 0.34

Q: For “VRQHREARPALLTSRLRFIPKPDGLRP (listed as Homo sapiens) [Pep-RIA-46]”, which “cellular uptake, MFI” value is on record?
A: 15.35 ± 0.92

Q: “VRQHREARPALLTSRLRFIPKPDGLRPI (listed as Homo sapiens) [Pep-RIA-59]” was tested. Which “cellular uptake, MFI” value did it give?
A: 22.69 ± 0.66
